The text below walks through data of ChEMBL document CHEMBL2074250, “Digoxin up-regulates MDR1 in human colon carcinoma Caco-2 cells” (Biochem Biophys Res Commun, 2002).

The target of the series is ATP-dependent translocase ABCB1 (Homo sapiens, UniProt P08183). The series is described as follows: TP_TRANSPORTER: RT-PCR in Caco-2 cells. Format: functional, cell-based.
Chain of ATP-dependent translocase ABCB1 (P08183 whole entry): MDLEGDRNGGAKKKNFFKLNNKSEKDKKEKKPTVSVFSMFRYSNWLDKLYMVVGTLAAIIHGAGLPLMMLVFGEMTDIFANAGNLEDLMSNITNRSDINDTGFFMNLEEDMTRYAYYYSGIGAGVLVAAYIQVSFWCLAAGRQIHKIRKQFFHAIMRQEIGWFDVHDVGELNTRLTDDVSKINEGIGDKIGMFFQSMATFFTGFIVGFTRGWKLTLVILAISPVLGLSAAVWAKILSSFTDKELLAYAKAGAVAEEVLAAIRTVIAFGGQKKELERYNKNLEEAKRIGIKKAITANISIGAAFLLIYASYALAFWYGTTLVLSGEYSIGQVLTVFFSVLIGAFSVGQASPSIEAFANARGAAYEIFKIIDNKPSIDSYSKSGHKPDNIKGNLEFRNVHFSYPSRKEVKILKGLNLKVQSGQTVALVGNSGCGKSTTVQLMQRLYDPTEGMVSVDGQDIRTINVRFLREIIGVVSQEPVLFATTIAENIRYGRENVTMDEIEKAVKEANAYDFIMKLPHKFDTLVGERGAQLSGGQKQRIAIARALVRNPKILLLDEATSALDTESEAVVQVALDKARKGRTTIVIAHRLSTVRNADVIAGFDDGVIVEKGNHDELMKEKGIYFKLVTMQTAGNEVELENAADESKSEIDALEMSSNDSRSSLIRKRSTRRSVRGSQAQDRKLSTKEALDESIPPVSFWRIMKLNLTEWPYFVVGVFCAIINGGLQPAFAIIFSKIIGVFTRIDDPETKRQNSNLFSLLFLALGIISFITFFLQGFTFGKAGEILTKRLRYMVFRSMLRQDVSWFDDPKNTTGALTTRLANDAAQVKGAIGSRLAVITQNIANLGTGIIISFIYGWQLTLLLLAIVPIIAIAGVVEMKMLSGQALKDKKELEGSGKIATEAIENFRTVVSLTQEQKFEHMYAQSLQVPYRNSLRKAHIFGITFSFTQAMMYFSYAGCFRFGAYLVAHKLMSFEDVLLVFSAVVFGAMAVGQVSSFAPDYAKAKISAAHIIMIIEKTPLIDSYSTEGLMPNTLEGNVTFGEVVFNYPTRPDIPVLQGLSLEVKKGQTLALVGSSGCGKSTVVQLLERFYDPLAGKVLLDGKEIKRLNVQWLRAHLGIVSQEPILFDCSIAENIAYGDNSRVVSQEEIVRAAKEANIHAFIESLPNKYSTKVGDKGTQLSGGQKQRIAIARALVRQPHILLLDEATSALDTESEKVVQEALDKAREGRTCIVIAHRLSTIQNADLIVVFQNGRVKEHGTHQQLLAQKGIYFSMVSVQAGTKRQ

For the compound `C[C@H]1O[C@@H](O[C@H]2[C@@H](O)C[C@H](O[C@H]3[C@@H](O)C[C@H](O[C@H]4CC[C@@]5(C)[C@H](CC[C@@H]6[C@@H]5C[C@@H](O)[C@]5(C)[C@@H](C7=CC(=O)OC7)CC[C@]65O)C4)O[C@@H]3C)O[C@@H]2C)C[C@H](O)[C@@H]1O` [DIGOXIN], the Activity entry is “inducer [+]”.
